Experimental data from publication PMC7115498 (European Journal of Medicinal Chemistry, 2009).
≈ marks a conversion by molar mass, not a printed value. Where two headings read alike, the source gives them in different places.

B1: UDA: reference in Table 2 (CRFK), not defined in the paper; presumably a plant lectin (protein, UniProt P11218 24-372, looked up)
Lectin/endochitinase 1: QRCGSQGGGGTCPALWCCSIWGWCGDSEPYCGRTCENKCWSGERSDHRCGAAVGNPPCGQDRCCSVHGWCGGGNDYCSGSKCQYRCSSSVRGPRVALSGNSTANSIGNVVVTEPLFDQMFSHRKDCPSQGFYSYHSFLVAAESFPAFGTIGDVATRKREVAAFLAHISQATSGERSDVENPHAWGLCHINTTTVTENDFCTSSDWPCAAGKKYSPRGPIQLTHNFNYGLAGQAIGEDLIQNPDLVEKDPIISFKTALWFWMSQHDNKPSCHDIVLNANSAANRIPNKGVIGNIISRAFGHDDFAVRSSSIGFYKRYCDMLGVSYGHDLKYWFDNTPSSEFQRIQMRVAA

Assays:
[1] = tested on: Coxsakie virus B4; experiment: organism not typed; format: cell-based; details: Vero
[2] = tested on: Reovirus-1; experiment: organism not typed; format: cell-based; details: Vero
[3] = tested on: Parainfluenza-3 virus; experiment: organism not typed; format: cell-based; details: Vero
[4] = tested on: HIV-1 IIIB strain; format: cell-based; details: for IC50: MTT method, Exp_nr P3.4401 and P3.4406
[5] = Partition coefficient by stir-flask method, octanol-water system; details: octanol / 0.1 NaOH solution, 25 °C, UV
[6] = in vitro; details: human, CC50, MT-4 cells, MTT method; IIIB experiments P3.4401 and P3.4406
[7] = tested on: Herpes simplex virus-1TK- KOS ACV; experiment: organism not typed; format: cell-based; details: HEL
[8] = tested on: MT-4 cells; details: MTT method
[9] = tested on: HIV-1 ROD strain; format: cell-based; details: for IC50: MTT method, Exp_nr P3.4402 and P3.4407
[10] = tested on: E. coli; experiment: Antibacterial microdilution broth susceptibility test; format: cell-based, Escherichia coli; details: 24 h, Gram-negative E. coli, 37 °C, no turbidity
[11] = tested on: HPV; details: ref Singh et al. unpublished results; cited from earlier work
[12] = tested on: Gram-positive cocci and Gram-negative bacilli; experiment: Antibacterial activity over all strains tested; format: cell-based; details: in vitro
[13] = in vitro; details: African green monkey, CC50, Vero cells, MTS assay
[14] = tested on: P. miraleilis; experiment: Antibacterial microdilution broth susceptibility test; format: cell-based, Proteus mirabeilis; details: Gram-negative P. miraleilis; 37 °C, 24 h, no turbidity
[15] = tested on: K. pneumoniae; experiment: as above; format: cell-based, Klebsiella pneumoniae; details: Gram-negative K. pneumoniae; 37 °C, 24 h, no turbidity
[16] = tested on: S. viridans; experiment: as above; format: cell-based, Streptococcus viridans; details: Gram-positive S. viridans; 37 °C, 24 h, no turbidity
[17] = tested on: Feline corona virus (FIPV); format: cell-based; details: virus N, CRFK cells, MTS assay
[18] = tested on: CRFK cells; details: MTS assay
[19] = tested on: Feline herpes virus; format: cell-based; details: virus O, CRFK cells, MTS assay
[20] = ROD experiments P3.4402 and P3.4407

Row | Molecule | EC50 [1] [nM] | EC50 [2] [nM] | EC50 [3] [nM] | EC50 [7] [nM] | CC50 [8, 20] [nM] | IC50 ([9]; HIV-1 ROD, MT-4 cells) [nM] | further results
1 | Nc1ncnc2c1ncn2C[C@H](O)CO [(S)-DHPA, reference compound] | > 250000 | > 250000 | > 250000 | – | – | – | –
2 | COc1cc(/C=C/C(=O)CC(=O)/C=C/c2ccc(OC(=O)[C@H](Cc3ccccc3)NC(=O)[C@@H](N)Cc3c[nH]c4ccccc34)c(OC)c2)ccc1OC(=O)[C@H](Cc1ccccc1)NC(=O)[C@@H](N)Cc1c[nH]c2ccccc12 [Compound 2, 1,7-Bis-[(4,4-di-O-tryptophanylphenylalanine)3-methoxyphenyl]-1,6-heptadiene-3,5-dione] | > 19 | > 19 | > 38 | > 38 | 103 | > 103 | SI (Selectivity index: CC50/IC50 ratio) [4]: <1; IC50 ([4]; HIV-1 IIIB, MT-4 cells): > 93 nM; P (partition coefficient), stir-flask method [5]: 5.50 × 10^2; CC50 [6]: 94 nM; SI (Selectivity index: CC50/IC50 ratio) [9]: <1
3 | CCCCCCCCCC(=O)Oc1ccc(/C=C/C(=O)CC(=O)/C=C/c2ccc(OC(=O)CCCCCCCCC)c(OC)c2)cc1OC [Compound 3, 1,7-Bis-[(4,4-di-O-decanoyl)3-methoxyphenyl]-1,6-heptadiene-3,5-dione] | – | – | – | – | – | – | P (partition coefficient), stir-flask method [5]: 1.69 × 10^8; MIC ([10]; Escherichia coli): 0.369 µM (≈ 0.25 µg/mL)
4 | CCCCCCCCCCCCCCCC(=O)Oc1ccc(/C=C/C(=O)CC(=O)/C=C/c2ccc(OC(=O)CCCCCCCCCCCCCCC)c(OC)c2)cc1OC [Compound 4, 1,7-Bis-[(4,4-di-O-pamitoyl)3-methoxyphenyl]-1,6-heptadiene-3,5-dione] | – | – | – | – | – | – | MIC ([10]; Escherichia coli): 0.591 µM (≈ 0.5 µg/mL)
5 | COc1cc(/C=C/C(=O)CC(=O)/C=C/c2ccc(OC(=O)CCC(NC(=O)c3ccc(NCc4cnc5nc(N)[nH]c(=O)c5n4)cc3)C(=O)O)c(OC)c2)ccc1OC(=O)CCC(NC(=O)c1ccc(NCc2cnc3nc(N)[nH]c(=O)c3n2)cc1)C(=O)O (stereo not drawn) [Compound 6, 1,7-Bis-[(4,4-di-O-bis-(γ,γ)-folyl)3-methoxyphenyl]-1,6-heptadiene-3,5-dione] | > 82 | > 82 | > 82 | > 82 | 50 | > 50 | IC50 ([4]; HIV-1 IIIB, MT-4 cells): > 46 nM; Activity against HPV causing cervical cancer [11]: very active
6 | COc1cc(/C=C/C(=O)C(CCOC(=O)CCC(NC(=O)c2ccc(NCc3cnc4nc(N)[nH]c(=O)c4n3)cc2)C(=O)O)C(=O)/C=C/c2ccc(O)c(OC)c2)ccc1O (stereo not drawn) [Compound 8, 1,7-Bis-[(4-hydroxy-3-methoxyphenyl)]-1,6-heptadiene-C^4-ethyl-O-folyl-3,5-dione] | > 11 | > 11 | > 11 | > 11 | 62 | > 62 | –
7 | COc1cc(/C=C/C(=O)CC(=O)/C=C/c2ccc(OCCOC(=O)CCC(NC(=O)c3ccc(NCc4cnc5nc(N)[nH]c(=O)c5n4)cc3)C(=O)O)c(OC)c2)ccc1O (stereo not drawn) [Compound 10, 1-(4-Hydroxy-3-methoxyphenyl)-7-(4-O-ethyl-O-folyl-3-methoxyphenyl)-1,6-heptadiene-3,5-dione] | > 119 | > 119 | > 119 | > 119 | 88 | > 88 | SI (Selectivity index: CC50/IC50 ratio) ([4]; HIV-1 IIIB, MT-4 cells): <1; IC50 ([4]; HIV-1 IIIB, MT-4 cells): > 58 nM; CC50 ([8]; IIIB experiments P3.4401 and P3.4406): 58 nM; SI (Selectivity index: CC50/IC50 ratio) ([9]; HIV-1 ROD, MT-4 cells): <1
8 | COc1cc(/C=C/C(=O)CC(=O)/C=C/c2ccc(O)c(OC)c2)ccc1O [Curcumin, 1,7-bis(4-hydroxy-3-methoxyphenyl)-1,6-heptadiene-3,5-dione, reference compound] | > 10 | > 10 | > 10 | – | – | – | P (partition coefficient), stir-flask method [5]: 1.70 × 10^2; MIC range over all strains [12]: 1.23 to 2.47 µM
9 | NC(=O)c1ncn([C@@H]2O[C@H](CO)[C@@H](O)[C@H]2O)n1 [Ribavirin] | > 250000 | 250000 | – | – | – | – | CC50 ([13]; column J (Reovirus-1)): > 250000 nM; CC50 ([13]; column K (Sindbis virus)): > 250000 nM; CC50 ([13]; column L (Coxsakie virus B4)): > 250000 nM; CC50 ([13]; column M (Punta toro virus)): > 250000 nM
10 | Gentamycin sulfate | – | – | – | – | – | – | MIC [10]: >1.73 µM; MIC [14]: >1.73 µM; MIC [15]: >1.73 µM; MIC [16]: >1.73 µM
11 | B1 | – | – | – | – | – | – | EC50 [17]: 1300 nM; CC50 ([18]; column N (Feline corona virus FIPV)): > 100000 nM; CC50 ([18]; column O (Feline herpes virus)): > 100000 nM; EC50 [19]: 2900 nM
